According to patent US8871753B2, “Macrocyclic compounds and their use as kinase inhibitors” (Incyte Corporation, priority 2008, dated 2014):

Assays:
Type in all cases: biochemical
[1] = target: T1, human JAK1 (a.a. 837-1142) (Homo sapiens, UniProt P23458); test: In vitro JAK kinase assay (HTRF, phosphorylation of a biotinylated peptide), JAK1; settings: method AA1 (90 μM ATP) or AA2 (1000 μM ATP), not stated per value; read-out: JAK1 IC50
T1 construct: human JAK1 (a.a. 837-1142); His tag (N); made in house; host or cells: insect cells (baculovirus)
T1 sequence (P23458 849-1154): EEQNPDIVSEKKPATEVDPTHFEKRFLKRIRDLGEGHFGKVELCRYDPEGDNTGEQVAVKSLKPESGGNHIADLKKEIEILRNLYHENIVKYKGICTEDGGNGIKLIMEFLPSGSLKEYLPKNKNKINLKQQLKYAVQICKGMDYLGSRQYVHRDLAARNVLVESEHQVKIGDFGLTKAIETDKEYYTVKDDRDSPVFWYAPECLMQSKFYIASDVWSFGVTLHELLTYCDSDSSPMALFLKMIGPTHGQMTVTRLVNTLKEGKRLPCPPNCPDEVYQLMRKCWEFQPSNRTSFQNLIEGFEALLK
Outline: (§1)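 Kinase activity was measured as phosphorylation of a biotinylated peptide, with ATP at 90 μM for JAK1, 30 μM for JAK2 and 3 μM for JAK3. Reactions ran 1 hr at room temperature, were stopped with EDTA plus SA-APC and Eu-Py20, and were read by HTRF after 40 minutes of antibody binding.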

TYK2 = TYK2 (Homo sapiens, UniProt P29597); test: TYK2 kinase inhibition (Table A1)
Sequence of TYK2 (P29597 whole entry): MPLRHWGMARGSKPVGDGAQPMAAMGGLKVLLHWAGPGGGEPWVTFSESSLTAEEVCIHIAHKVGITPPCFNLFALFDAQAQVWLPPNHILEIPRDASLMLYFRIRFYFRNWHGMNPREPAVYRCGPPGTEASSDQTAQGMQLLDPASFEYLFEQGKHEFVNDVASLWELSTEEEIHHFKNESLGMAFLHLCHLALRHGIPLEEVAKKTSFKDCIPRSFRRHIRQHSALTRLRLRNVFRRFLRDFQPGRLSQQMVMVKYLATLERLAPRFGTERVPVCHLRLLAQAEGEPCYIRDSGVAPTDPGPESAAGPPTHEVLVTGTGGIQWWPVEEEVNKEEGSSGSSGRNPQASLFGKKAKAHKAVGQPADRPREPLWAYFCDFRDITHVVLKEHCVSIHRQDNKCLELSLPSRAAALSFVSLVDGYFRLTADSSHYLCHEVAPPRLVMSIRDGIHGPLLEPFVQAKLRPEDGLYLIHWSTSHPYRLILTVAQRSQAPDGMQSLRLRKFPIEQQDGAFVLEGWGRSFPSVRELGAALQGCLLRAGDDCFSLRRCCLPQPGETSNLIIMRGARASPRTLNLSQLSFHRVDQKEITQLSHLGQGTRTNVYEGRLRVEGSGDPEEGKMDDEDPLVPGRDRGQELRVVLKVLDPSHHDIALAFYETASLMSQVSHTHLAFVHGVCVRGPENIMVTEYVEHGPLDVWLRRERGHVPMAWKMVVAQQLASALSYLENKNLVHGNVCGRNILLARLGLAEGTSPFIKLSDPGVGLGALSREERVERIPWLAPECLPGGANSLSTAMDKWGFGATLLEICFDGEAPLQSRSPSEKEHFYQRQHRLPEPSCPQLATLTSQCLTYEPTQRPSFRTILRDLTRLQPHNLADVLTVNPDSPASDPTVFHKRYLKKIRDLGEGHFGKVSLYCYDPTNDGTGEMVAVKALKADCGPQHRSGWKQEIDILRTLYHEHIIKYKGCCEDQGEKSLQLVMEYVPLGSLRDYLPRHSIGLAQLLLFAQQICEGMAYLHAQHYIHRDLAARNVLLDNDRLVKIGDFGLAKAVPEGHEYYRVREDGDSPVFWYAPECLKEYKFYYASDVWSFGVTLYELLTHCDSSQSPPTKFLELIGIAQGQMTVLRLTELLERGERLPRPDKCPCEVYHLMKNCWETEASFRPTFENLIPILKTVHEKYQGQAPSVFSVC

[2] = target: T2, Recombinant Human Anaplastic Lymphoma Kinase (Homo sapiens, UniProt Q9UM73); test: ALK HTRF kinase assay; settings: compound at 500 nM or 1 mM, 90 μM ATP
T2 construct: purchased Invitrogen, Carlsbad, Calif
T2 sequence (Q9UM73 19-1620): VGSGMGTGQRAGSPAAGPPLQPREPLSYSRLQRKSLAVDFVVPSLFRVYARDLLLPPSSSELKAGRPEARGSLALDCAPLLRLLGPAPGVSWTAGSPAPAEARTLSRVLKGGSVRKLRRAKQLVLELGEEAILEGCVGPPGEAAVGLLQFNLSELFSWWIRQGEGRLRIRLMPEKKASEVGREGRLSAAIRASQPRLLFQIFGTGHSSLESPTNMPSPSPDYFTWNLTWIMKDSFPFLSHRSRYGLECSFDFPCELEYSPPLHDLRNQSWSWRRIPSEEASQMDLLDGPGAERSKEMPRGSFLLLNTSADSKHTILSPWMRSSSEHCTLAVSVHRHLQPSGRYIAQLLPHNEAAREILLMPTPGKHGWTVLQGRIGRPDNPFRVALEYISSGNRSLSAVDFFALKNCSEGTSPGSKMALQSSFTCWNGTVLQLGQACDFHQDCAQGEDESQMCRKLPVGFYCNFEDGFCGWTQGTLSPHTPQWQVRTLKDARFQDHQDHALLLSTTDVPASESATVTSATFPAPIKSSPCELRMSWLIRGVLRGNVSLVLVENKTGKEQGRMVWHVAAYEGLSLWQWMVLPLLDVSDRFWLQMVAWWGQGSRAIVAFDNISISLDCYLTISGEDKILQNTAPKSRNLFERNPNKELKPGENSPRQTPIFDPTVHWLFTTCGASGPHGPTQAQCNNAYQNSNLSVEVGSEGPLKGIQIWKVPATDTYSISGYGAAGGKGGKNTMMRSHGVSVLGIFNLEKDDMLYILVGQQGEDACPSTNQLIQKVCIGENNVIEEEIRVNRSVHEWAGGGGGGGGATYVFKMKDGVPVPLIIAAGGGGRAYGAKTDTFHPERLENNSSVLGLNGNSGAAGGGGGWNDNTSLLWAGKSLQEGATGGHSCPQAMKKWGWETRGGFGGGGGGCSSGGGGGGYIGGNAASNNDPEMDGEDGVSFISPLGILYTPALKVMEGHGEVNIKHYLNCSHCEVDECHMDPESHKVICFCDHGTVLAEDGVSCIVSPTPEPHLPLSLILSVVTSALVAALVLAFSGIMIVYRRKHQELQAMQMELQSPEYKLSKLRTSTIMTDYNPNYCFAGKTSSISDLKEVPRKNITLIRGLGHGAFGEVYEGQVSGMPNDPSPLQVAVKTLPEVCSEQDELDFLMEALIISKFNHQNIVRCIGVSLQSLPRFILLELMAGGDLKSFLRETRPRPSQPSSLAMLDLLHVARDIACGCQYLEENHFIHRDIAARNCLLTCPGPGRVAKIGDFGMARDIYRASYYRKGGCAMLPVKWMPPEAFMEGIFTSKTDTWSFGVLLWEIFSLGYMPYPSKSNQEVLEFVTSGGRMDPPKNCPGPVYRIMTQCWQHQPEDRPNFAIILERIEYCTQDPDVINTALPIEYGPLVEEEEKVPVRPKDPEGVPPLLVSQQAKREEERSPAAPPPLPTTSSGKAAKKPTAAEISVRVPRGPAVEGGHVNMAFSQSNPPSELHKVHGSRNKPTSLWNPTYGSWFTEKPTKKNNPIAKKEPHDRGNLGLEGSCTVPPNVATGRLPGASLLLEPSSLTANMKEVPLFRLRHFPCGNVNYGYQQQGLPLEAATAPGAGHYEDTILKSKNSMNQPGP
Outline: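 IC50 was obtained from a logistic fit of signal versus log inhibitor concentration, using pre- and post-transition baselines and a Hill slope. The signal reported tyrosine phosphorylation of a biotinylated peptide by recombinant human kinase, detected as Eu-to-APC energy transfer.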

[3] = target: T3, human JAK2 (a.a. 828-1132) (Homo sapiens, UniProt O60674); test: In vitro JAK kinase assay (HTRF, phosphorylation of a biotinylated peptide), JAK2; settings: method AA1 (30 μM ATP) or AA2 (1000 μM ATP), not stated per value
T3 construct: JAK2 (a.a. 828-1132); His tag (N); made in house; host or cells: insect cells (baculovirus)
T3 sequence (O60674 828-1132): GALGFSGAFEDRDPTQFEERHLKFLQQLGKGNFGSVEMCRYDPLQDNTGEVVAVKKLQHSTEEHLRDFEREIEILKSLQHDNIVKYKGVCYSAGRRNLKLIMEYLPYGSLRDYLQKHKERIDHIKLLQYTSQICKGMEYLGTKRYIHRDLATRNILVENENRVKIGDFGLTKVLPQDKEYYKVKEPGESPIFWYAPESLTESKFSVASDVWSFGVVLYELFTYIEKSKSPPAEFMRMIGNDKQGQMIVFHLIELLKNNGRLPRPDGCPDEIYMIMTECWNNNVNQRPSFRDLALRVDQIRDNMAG
Outline: as §1

[4] = target: T4, human JAK3 (a.a. 781-1124) (Homo sapiens, UniProt P52333); test: In vitro JAK kinase assay (HTRF, phosphorylation of a biotinylated peptide), JAK3; settings: method AA1 (3 μM ATP) or AA2 (1000 μM ATP), not stated per value
T4 construct: JAK3 (a.a. 781-1124); His tag (N); made in house; host or cells: insect cells (baculovirus)
T4 sequence (P52333 781-1124): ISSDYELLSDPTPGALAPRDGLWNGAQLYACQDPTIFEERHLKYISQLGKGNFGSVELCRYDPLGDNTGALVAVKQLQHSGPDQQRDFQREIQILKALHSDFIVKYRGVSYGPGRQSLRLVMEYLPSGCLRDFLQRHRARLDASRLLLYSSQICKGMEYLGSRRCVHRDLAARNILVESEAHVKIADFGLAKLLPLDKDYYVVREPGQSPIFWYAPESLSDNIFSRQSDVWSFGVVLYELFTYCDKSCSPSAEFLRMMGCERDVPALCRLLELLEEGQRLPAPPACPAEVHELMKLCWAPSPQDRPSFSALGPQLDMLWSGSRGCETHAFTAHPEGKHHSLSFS
Outline: as §1

| SMILES | IC50 [1] | IC50 (TYK2) | ALK % of inhibition at a concentration of 500 nM or 1 mM [2] | IC50 [3] | IC50 [4] | ALK % of inhibition at a concentration of 500 nM or 1 mM ([2]; bis(trifluoroacetate)) |
| --- | --- | --- | --- | --- | --- | --- |
| O=C(CC1CCN(C(=O)c2nc[nH]n2)CC1)Nc1ccc2cc1CCc1cncc(c1)Nc1ncc(Cl)c(n1)N2 [Example A136, N-[6-Chloro-2,4,8,18,22-pentaazatetracyclo[14.3.1.1(3,7).1(9,13)]docosa-1(20),3(22),4,6,9(21),10,12,16,18-nonaen-12-yl]-2-[1-(1H-1,2,4-triazol-3-ylcarbonyl)piperidin-4-yl]acetamide bis(trifluoroacetate)] | 0.4 nM | 2.1 nM | 38% | 2.4 nM | 57 nM | – |
| O=C(CC1CCN(C(=O)c2c[nH]nn2)CC1)Nc1ccc2cc1CCc1cncc(c1)Nc1ncc(Cl)c(n1)N2 [Example A137, N-[6-Chloro-2,4,8,18,22-pentaazatetracyclo[14.3.1.1(3,7).1(9,13)]docosa-1(20),3(22),4,6,9(21),10,12,16,18-nonaen-12-yl]-2-[1-(1H-1,2,3-triazol-4-ylcarbonyl)piperidin-4-yl]acetamide bis(trifluoroacetate)] | 0.6 nM | 1 nM | 54% | 3 nM | 41 nM | – |
| O=C(CC1CCN(C(=O)c2cnon2)CC1)Nc1ccc2cc1CCc1cncc(c1)Nc1ncc(Cl)c(n1)N2 [Example A138, N-[6-Chloro-2,4,8,18,22-pentaazatetracyclo[14.3.1.1(3,7).1(9,13)]docosa-1(20),3(22),4,6,9(21),10,12,16,18-nonaen-12-yl]-2-[1-(1,2,5-oxadiazol-3-ylcarbonyl)piperidin-4-yl]acetamide bis(trifluoroacetate)] | 2 nM | 8 nM | 46% | 7.2 nM | 30 nM | – |
| O=C(CC1CCN(C(=O)c2ncco2)CC1)Nc1ccc2cc1CCc1cncc(c1)Nc1ncc(Cl)c(n1)N2 [Example A139, N-[6-Chloro-2,4,8,18,22-pentaazatetracyclo[14.3.1.1(3,7).1(9,13)]docosa-1(20),3(22),4,6,9(21),10,12,16,18-nonaen-12-yl]-2-[1-(1,3-oxazol-2-ylcarbonyl)piperidin-4-yl]acetamide bis(trifluoroacetate)] | 1.1 nM | 3.4 nM | 27% | 7.6 nM | 178 nM | – |
| CC(C)N1CCC(CC(=O)Nc2ccc3cc2CCc2cncc(c2)Nc2ncc(Cl)c(n2)N3)CC1 [Example A140, N-[6-Chloro-2,4,8,18,22-pentaazatetracyclo[14.3.1.1(3,7).1(9,13)]docosa-1(20),3(22),4,6,9(21),10,12,16,18-nonaen-12-yl]-2-(1-isopropylpiperidin-4-yl)acetamide tris(trifluoroacetate)] | 38 nM | 68 nM | 18% | 46 nM | 117 nM | – |
| N#Cc1ccccc1NC(=O)N1CCC(CC(=O)Nc2ccc3cc2CCc2cncc(c2)Nc2ncc(Cl)c(n2)N3)CC1 [Example A141, 4-(2-{[6-Chloro-2,4,8,18,22-pentaazatetracyclo[14.3.1.1(3,7).1(9,13)]docosa-1(20),3(22),4,6,9(21),10,12,16,18-nonaen-12-yl]amino}-2-oxoethyl)-N-(2-cyanophenyl)piperidine-1-carboxamide bis(trifluoroacetate)] | 3.5 nM | 13 nM | 19% | 12 nM | > 100 nM | – |
| N#Cc1cccc(NC(=O)N2CCC(CC(=O)Nc3ccc4cc3CCc3cncc(c3)Nc3ncc(Cl)c(n3)N4)CC2)c1 [Example A142, 4-(2-{[6-Chloro-2,4,8,18,22-pentaazatetracyclo[14.3.1.1(3,7).1(9,13)]docosa-1(20),3(22),4,6,9(21),10,12,16,18-nonaen-12-yl]amino}-2-oxoethyl)-N-(3-cyanophenyl)piperidine-1-carboxamide bis(trifluoroacetate)] | 2.4 nM | 6.5 nM | 41% | 4.8 nM | > 100 nM | – |
| N#Cc1ccc(NC(=O)N2CCC(CC(=O)Nc3ccc4cc3CCc3cncc(c3)Nc3ncc(Cl)c(n3)N4)CC2)cc1 [Example A143, 4-(2-{[6-Chloro-2,4,8,18,22-pentaazatetracyclo[14.3.1.1(3,7).1(9,13)]docosa-1(20),3(22),4,6,9(21),10,12,16,18-nonaen-12-yl]amino}-2-oxoethyl)-N-(4-cyanophenyl)piperidine-1-carboxamide bis(trifluoroacetate)] | 2.2 nM | 1.2 nM | 63% | 1.8 nM | > 100 nM | – |
| O=C(CC1CCN(C(=O)Nc2cccnc2)CC1)Nc1ccc2cc1CCc1cncc(c1)Nc1ncc(Cl)c(n1)N2 [Example A144, 4-(2-{[6-Chloro-2,4,8,18,22-pentaazatetracyclo[14.3.1.1(3,7).1(9,13)]docosa-1(20),3(22),4,6,9(21),10,12,16,18-nonaen-12-yl]amino}-2-oxoethyl)-N-pyridin-3-ylpiperidine-1-carboxamide bis(trifluoroacetate)] | 1.2 nM | 11 nM | 35% | 6.4 nM | > 100 nM | – |
| Cc1noc(C)c1NC(=O)N1CCC(CC(=O)Nc2ccc3cc2CCc2cncc(c2)Nc2ncc(Cl)c(n2)N3)CC1 [Example A145, 4-(2-{[6-Chloro-2,4,8,18,22-pentaazatetracyclo[14.3.1.1(3,7).1(9,13)]docosa-1(20),3(22),4,6,9(21),10,12,16,18-nonaen-12-yl]amino}-2-oxoethyl)-N-(3,5-dimethylisoxazol-4-yl)piperidine-1-carboxamide bis(trifluoroacetate)] | 16 nM | 43 nM | – | 30 nM | > 100 nM | 21% |
| O=C(CC1CCN(C(=O)Nc2ccccc2F)CC1)Nc1ccc2cc1CCc1cncc(c1)Nc1ncc(Cl)c(n1)N2 [Example A146, 4-(2-{[6-Chloro-2,4,8,18,22-pentaazatetracyclo[14.3.1.1(3,7).1(9,13)]docosa-1(20),3(22),4,6,9(21),10,12,16,18-nonaen-12-yl]amino}-2-oxoethyl)-N-(2-fluorophenyl)piperidine-1-carboxamide bis(trifluoroacetate)] | 0.9 nM | 7.1 nM | 34% | 3.6 nM | > 100 nM | – |
| O=C(CC1CCN(C(=O)Nc2cccc(F)c2)CC1)Nc1ccc2cc1CCc1cncc(c1)Nc1ncc(Cl)c(n1)N2 [Example A147, 4-(2-{[6-Chloro-2,4,8,18,22-pentaazatetracyclo[14.3.1.1(3,7).1(9,13)]docosa-1(20),3(22),4,6,9(21),10,12,16,18-nonaen-12-yl]amino}-2-oxoethyl)-N-(3-fluorophenyl)piperidine-1-carboxamide bis(trifluoroacetate)] | 0.3 nM | 7.4 nM | 46% | 1.9 nM | > 100 nM | – |
| O=C(CC1CCN(C(=O)Nc2ccc(F)cc2)CC1)Nc1ccc2cc1CCc1cncc(c1)Nc1ncc(Cl)c(n1)N2 [Example A148, 4-(2-{[6-Chloro-2,4,8,18,22-pentaazatetracyclo[14.3.1.1(3,7).1(9,13)]docosa-1(20),3(22),4,6,9(21),10,12,16,18-nonaen-12-yl]amino}-2-oxoethyl)-N-(4-fluorophenyl)piperidine-1-carboxamide bis(trifluoroacetate)] | 0.2 nM | 3.9 nM | 42% | 1.5 nM | > 100 nM | – |
| Cc1ccccc1NC(=O)N1CCC(CC(=O)Nc2ccc3cc2CCc2cncc(c2)Nc2ncc(Cl)c(n2)N3)CC1 [Example A149, 4-(2-{[6-Chloro-2,4,8,18,22-pentaazatetracyclo[14.3.1.1(3,7).1(9,13)]docosa-1(20),3(22),4,6,9(21),10,12,16,18-nonaen-12-yl]amino}-2-oxoethyl)-N-(2-methylphenyl)piperidine-1-carboxamide bis(trifluoroacetate)] | 0.5 nM | 6.9 nM | 35% | 3.1 nM | > 100 nM | – |
| Cc1cccc(NC(=O)N2CCC(CC(=O)Nc3ccc4cc3CCc3cncc(c3)Nc3ncc(Cl)c(n3)N4)CC2)c1 [Example A150, 4-(2-{[6-Chloro-2,4,8,18,22-pentaazatetracyclo[14.3.1.1(3,7).1(9,13)]docosa-1(20),3(22),4,6,9(21),10,12,16,18-nonaen-12-yl]amino}-2-oxoethyl)-N-(3-methylphenyl)piperidine-1-carboxamide bis(trifluoroacetate)] | 0.3 nM | 5.1 nM | 48% | 1.1 nM | > 100 nM | – |
